{"source": "BigSolDB 2.1", "data": [{"smiles": "CC(=O)Nc1ccc(O)cc1", "values": [{"measurement": "solubility (mole fraction)", "setting": "in ethanol, 293.15 K", "value": 0.0505}, {"measurement": "solubility (mole fraction)", "setting": "in ethanol, 298.15 K", "value": 0.0546}, {"measurement": "solubility (mole fraction)", "setting": "in ethanol, 303.15 K", "value": 0.062}, {"measurement": "solubility (mole fraction)", "setting": "in ethanol, 308.15 K", "value": 0.067}, {"measurement": "solubility (mole fraction)", "setting": "in ethanol, 313.15 K", "value": 0.0705}, {"measurement": "solubility (mole fraction)", "setting": "in propylene glycol, 293.15 K", "value": 0.0483}, {"measurement": "solubility (mole fraction)", "setting": "in propylene glycol, 298.15 K", "value": 0.0516}, {"measurement": "solubility (mole fraction)", "setting": "in propylene glycol, 303.15 K", "value": 0.0603}, {"measurement": "solubility (mole fraction)", "setting": "in propylene glycol, 308.15 K", "value": 0.0664}, {"measurement": "solubility (mole fraction)", "setting": "in propylene glycol, 313.15 K", "value": 0.0752}]}]}
